# Laboratory results published in ChEMBL document CHEMBL1201862, “PubChem BioAssay data set” (2004).
# “And” between values parts separate entries of the source, which are not always exact repeats. Equal entries are not always repeated.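 Five compound concentrations were applied to cells in 96-well plates for 48 hours; endpoints were derived by simple linear interpolation of the resulting dose-response curve. Here, GI50 denotes the concentration required for 50% inhibition of growth.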 The source made the active and inactive calls. No stated cut-off is given here; in the data, active = GI50 up to about 1.1 µM and inactive = higher.
# How the values were obtained:
# Test in all cases: NCI anticancer screen, dose series, 48 h
# MCF7 = system: MCF7
# HCT-15 = system: HCT-15
# Malme-3M = system: Malme-3M
# HCC 2998 = system: HCC 2998
# SF-295 = system: SF-295
# MDA-N = system: MDA-N
# T47D = system: T47D
# ACHN = system: ACHN
# SN12C = system: SN12C
# MDA-MB-231 = system: MDA-MB-231
# A498 = system: A498
# HT-29 = system: HT-29
# NCI/ADR-RES = system: NCI/ADR-RES
# Hs-578T = system: Hs-578T
# LOX IMVI = system: LOX IMVI
# NCI-H226 = system: NCI-H226
# HCT-116 = system: HCT-116
# 786-0 = system: 786-0
# SW-620 = system: SW-620
# NCI-H460 = system: NCI-H460
# MDA-MB-435 = system: MDA-MB-435
# NCI-H23 = system: NCI-H23
# OVCAR-3 = system: OVCAR-3
# OVCAR-8 = system: OVCAR-8
# SF-268 = system: SF-268
# COLO 205 = system: COLO 205
# RXF 393 = system: RXF 393
# K562 = system: K562
# CCRF-CEM = system: CCRF-CEM
# SR = system: SR
# SK-MEL-28 = system: SK-MEL-28
# OVCAR-4 = system: OVCAR-4
# U-251 = system: U-251
# IGROV-1 = system: IGROV-1
# HOP-62 = system: HOP-62
# RPMI-8226 = system: RPMI-8226
# CAKI-1 = system: CAKI-1
# NCI-H522 = system: NCI-H522
# HOP-92 = system: HOP-92
# M14 = system: M14
# KM12 = system: KM12
# UACC-257 = system: UACC-257
# SNB-19 = system: SNB-19
# SK-MEL-5 = system: SK-MEL-5
# SNB-75 = system: SNB-75
# PC-3 = system: PC-3
# OVCAR-5 = system: OVCAR-5
# UACC-62 = system: UACC-62
# TK-10 = system: TK-10
# A549 = system: A549
# EKVX = system: EKVX
# SK-OV-3 = system: SK-OV-3
# UO-31 = system: UO-31
# MOLT-4 = system: MOLT-4
# SK-MEL-2 = system: SK-MEL-2
# DU-145 = system: DU-145
# HL-60 = system: HL-60
compound,measurement,setting,value
COc1ccc(COC(=O)NCC(=O)NC(C)C(=O)NC(Cc2ccccc2)C(=O)OCc2ccccc2)cc1 (configuration not stated),GI50,MCF7,17 µM (inactive)
same,GI50,HCT-15,> 100 µM and 61.2 µM
same,GI50,Malme-3M,19.2 µM (inactive) and 36.6 µM (inactive)
same,GI50,HCC 2998,20.9 µM (inactive) and 14.8 µM (inactive)
same,GI50,SF-295,21.1 µM (inactive) and 22.3 µM (inactive)
same,GI50,MDA-N,25.9 µM (inactive) and 27.4 µM (inactive)
same,GI50,T47D,19.8 µM (inactive) and 30.1 µM (inactive)
same,GI50,ACHN,21.3 µM (inactive) and 19.8 µM (inactive)
same,GI50,SN12C,24.2 µM (inactive) and 31.5 µM (inactive)
same,GI50,MDA-MB-231,20 µM (inactive) and 25.6 µM (inactive)
same,GI50,A498,38.8 µM (inactive) and 22.5 µM (inactive)
same,GI50,HT-29,26.4 µM (inactive) and 18.4 µM (inactive)
same,GI50,NCI/ADR-RES,> 100 µM (inactive) and 67.1 µM (inactive)
same,GI50,Hs-578T,23.9 µM (inactive) and 25.5 µM (inactive)
same,GI50,LOX IMVI,28.1 µM (inactive) and 19.4 µM (inactive)
same,GI50,NCI-H226,27.3 µM (inactive) and 34.9 µM (inactive)
same,GI50,HCT-116,33.5 µM (inactive) and 42.5 µM (inactive)
same,GI50,786-0,20 µM (inactive) and 29.2 µM (inactive)
same,GI50,SW-620,33.3 µM (inactive) and 45.8 µM (inactive)
same,GI50,NCI-H460,10.8 µM (inactive)
same,GI50,MDA-MB-435,27.6 µM (inactive) and 22.1 µM (inactive)
same,GI50,NCI-H23,37.9 µM (inactive)
same,GI50,OVCAR-3,22.1 µM (inactive) and 24.4 µM (inactive)
same,GI50,OVCAR-8,> 100 µM (inactive) and 74.5 µM (inactive)
same,GI50,SF-268,24.3 µM (inactive) and 35 µM (inactive)
same,GI50,COLO 205,24.4 µM (inactive) and 24.2 µM (inactive)
same,GI50,RXF 393,16.1 µM (inactive)
same,GI50,K562,26.5 µM (inactive) and 38.7 µM (inactive)
same,GI50,CCRF-CEM,21.5 µM (inactive) and 13.6 µM (inactive)
same,GI50,SR,28.3 µM (inactive) and 25 µM (inactive)
same,GI50,SK-MEL-28,18.9 µM (inactive) and 19.4 µM (inactive)
same,GI50,OVCAR-4,34 µM (inactive) and 22.3 µM (inactive)
same,GI50,U-251,22.2 µM (inactive) and 21.9 µM (inactive)
same,GI50,IGROV-1,45.2 µM (inactive) and 29.8 µM (inactive)
same,GI50,HOP-62,24.7 µM (inactive) and 22.3 µM (inactive)
same,GI50,RPMI-8226,29.6 µM (inactive) and 26.7 µM (inactive)
same,GI50,CAKI-1,20 µM (inactive) and 21.1 µM (inactive)
same,GI50,NCI-H522,12.2 µM (inactive) and 16.5 µM (inactive)
O=C1/C(=C/c2cccs2)NC(=S)N1CN1CCCC(CO)C1 (configuration not stated),GI50,HOP-92,> 100 µM (inactive)
same,GI50,MCF7,> 100 µM (inactive)
same,GI50,HCT-15,> 100 µM
same,GI50,Malme-3M,> 100 µM (inactive)
same,GI50,SF-295,91.4 µM (inactive)
same,GI50,MDA-N,> 100 µM (inactive)
same,GI50,M14,> 100 µM (inactive)
same,GI50,ACHN,> 100 µM (inactive)
same,GI50,SN12C,> 100 µM (inactive)
same,GI50,KM12,> 100 µM (inactive)
same,GI50,MDA-MB-231,> 100 µM (inactive)
same,GI50,UACC-257,> 100 µM (inactive)
same,GI50,A498,32.2 µM (inactive)
same,GI50,SNB-19,> 100 µM (inactive)
same,GI50,HT-29,> 100 µM (inactive)
same,GI50,SK-MEL-5,> 100 µM (inactive)
same,GI50,SNB-75,> 100 µM (inactive)
same,GI50,NCI/ADR-RES,> 100 µM (inactive)
same,GI50,Hs-578T,> 100 µM (inactive)
same,GI50,LOX IMVI,> 100 µM (inactive)
same,GI50,PC-3,> 100 µM (inactive)
same,GI50,OVCAR-5,> 100 µM (inactive)
same,GI50,NCI-H226,> 100 µM (inactive)
same,GI50,HCT-116,> 100 µM (inactive)
same,GI50,UACC-62,> 100 µM (inactive)
same,GI50,786-0,> 100 µM (inactive)
same,GI50,SW-620,> 100 µM (inactive)
same,GI50,TK-10,> 100 µM (inactive)
same,GI50,MDA-MB-435,> 100 µM (inactive)
same,GI50,NCI-H23,> 100 µM (inactive)
same,GI50,OVCAR-3,> 100 µM (inactive)
same,GI50,OVCAR-8,> 100 µM (inactive)
same,GI50,SF-268,> 100 µM (inactive)
same,GI50,A549,> 100 µM (inactive)
same,GI50,EKVX,> 100 µM (inactive)
same,GI50,COLO 205,> 100 µM (inactive)
same,GI50,K562,> 100 µM (inactive)
same,GI50,CCRF-CEM,> 100 µM (inactive)
same,GI50,SR,> 100 µM (inactive)
same,GI50,SK-OV-3,> 100 µM (inactive)
same,GI50,SK-MEL-28,> 100 µM (inactive)
same,GI50,UO-31,> 100 µM (inactive)
same,GI50,MOLT-4,> 100 µM (inactive)
same,GI50,OVCAR-4,> 100 µM (inactive)
same,GI50,U-251,> 100 µM (inactive)
same,GI50,IGROV-1,> 100 µM (inactive)
same,GI50,SK-MEL-2,> 100 µM (inactive)
same,GI50,DU-145,> 100 µM (inactive)
same,GI50,HOP-62,> 100 µM (inactive)
same,GI50,RPMI-8226,99.1 µM (inactive)
Cc1nc(=O)n2c(c1C(=O)Nc1ccc(Cl)cc1)NCC2,GI50,HOP-92,47.8 µM (inactive)
CCOC(=O)/C=C/CC(C)(C)COC(C)=O,GI50,MCF7,> 10 µM (inactive)
same,GI50,HCT-15,> 10 µM
same,GI50,HCC 2998,> 10 µM (inactive)
same,GI50,SF-295,> 10 µM (inactive)
same,GI50,MDA-N,7.48 µM (inactive)
same,GI50,M14,6.75 µM (inactive)
same,GI50,T47D,> 10 µM (inactive)
same,GI50,ACHN,6.75 µM (inactive)
same,GI50,SN12C,> 10 µM (inactive)
same,GI50,HL-60,> 10 µM (inactive)
same,GI50,KM12,0.811 µM (active)
same,GI50,MDA-MB-231,> 10 µM (inactive)
same,GI50,UACC-257,> 10 µM (inactive)
same,GI50,SNB-75,5.11 µM (inactive)
same,GI50,NCI/ADR-RES,> 10 µM (inactive)
same,GI50,Hs-578T,0.406 µM (active)
same,GI50,LOX IMVI,6.98 µM (inactive)
same,GI50,PC-3,> 10 µM (inactive)
same,GI50,OVCAR-5,9.08 µM (inactive)
same,GI50,NCI-H226,2.45 µM (inactive)
same,GI50,HCT-116,6.1 µM (inactive)
same,GI50,UACC-62,> 10 µM (inactive)
same,GI50,SW-620,> 10 µM (inactive)
same,GI50,TK-10,> 10 µM (inactive)
same,GI50,NCI-H460,> 10 µM (inactive)
same,GI50,MDA-MB-435,> 10 µM (inactive)
same,GI50,NCI-H23,> 10 µM (inactive)
same,GI50,OVCAR-3,> 10 µM (inactive)
same,GI50,SF-268,> 10 µM (inactive)
same,GI50,A549,> 10 µM (inactive)
same,GI50,RXF 393,5.32 µM (inactive)
same,GI50,K562,9.91 µM (inactive)
same,GI50,CCRF-CEM,> 10 µM (inactive)
same,GI50,SR,> 10 µM (inactive)
same,GI50,SK-OV-3,> 10 µM (inactive)
same,GI50,SK-MEL-28,> 10 µM (inactive)
same,GI50,UO-31,> 10 µM (inactive)
same,GI50,MOLT-4,> 10 µM (inactive)
same,GI50,OVCAR-4,> 10 µM (inactive)
same,GI50,SK-MEL-2,> 10 µM (inactive)
same,GI50,DU-145,7.43 µM (inactive)
same,GI50,RPMI-8226,> 10 µM (inactive)
same,GI50,NCI-H522,> 10 µM (inactive)
